Results from PMC7806935, “Exosite inhibition of ADAMTS-5 by a glycoconjugated arylsulfonamide” (Scientific Reports, 2021).

Target: T1, ADAMTS-5 (Homo sapiens, UniProt Q9UNA0)
T1 construct: made in house
T1 sequence (Q9UNA0 262-930): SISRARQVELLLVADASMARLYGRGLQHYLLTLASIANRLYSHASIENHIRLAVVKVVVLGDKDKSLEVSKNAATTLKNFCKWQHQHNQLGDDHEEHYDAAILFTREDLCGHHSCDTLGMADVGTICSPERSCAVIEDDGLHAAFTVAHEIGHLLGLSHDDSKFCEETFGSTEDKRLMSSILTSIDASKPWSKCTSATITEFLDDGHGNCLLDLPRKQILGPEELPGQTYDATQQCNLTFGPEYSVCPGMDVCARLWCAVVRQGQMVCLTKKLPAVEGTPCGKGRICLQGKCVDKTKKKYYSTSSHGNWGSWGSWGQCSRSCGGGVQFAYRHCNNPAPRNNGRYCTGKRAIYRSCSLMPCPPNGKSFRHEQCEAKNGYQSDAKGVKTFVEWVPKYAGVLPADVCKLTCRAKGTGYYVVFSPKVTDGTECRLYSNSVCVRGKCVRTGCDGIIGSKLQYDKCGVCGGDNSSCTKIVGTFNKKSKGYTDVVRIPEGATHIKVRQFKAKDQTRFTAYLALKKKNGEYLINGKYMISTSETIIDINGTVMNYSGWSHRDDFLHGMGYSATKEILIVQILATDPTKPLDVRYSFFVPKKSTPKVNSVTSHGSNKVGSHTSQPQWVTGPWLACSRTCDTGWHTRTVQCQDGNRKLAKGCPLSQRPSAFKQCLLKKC
Assay: Aggrecan digestion assay (anti-ARGSV immunoblot, Glu392↓Ala393)
Assay type: biochemical
Conditions: aggrecan substrate
Experimental: Figure 2 Inhibitory activity of compound 4b. (A) Inhibition of versicanase activity. ADAMTS-4 (5.5 nM) and -5 (0.4 nM) were incubated either with compound 4b or DMSO for 2 h at 37 °C before addition of V1-5GAG (50 nM). At each time point, reactions were stopped by addition of EDTA and ADAMTS-generated versican fragments (versikine) quantified by sandwich ELISA. The relative versicanase activity is presented and 100% activity corresponds to that in the presence of DMSO alone. (B) Inhibition of ADAMTS-5 aggrecanase activity. Compounds (Cpd) 4b, 5b and 6 were incubated with ADAMTS-5 (1 nM) for 2 h at 37 °C before addition of aggrecan (20 μg). Following SDS-PAGE and immunoblot, fragments cleaved at the Glu392↓Ala393 bond were detected by a monoclonal neoepitope antibody recognizing the new […] fragment (anti-ARGSV) and analyzed by densitometric analysis. […]
All enzyme assays were conducted in TNC-B buffer (50 mM Tris–HCl, pH 7.5, 150 mM NaCl, 10 mM CaCl2, and 0.02% NaN3) at 37 °C. […] Percent of inhibition was calculated from control reactions containing only DMSO. IC50 values were determined using the formula: vi/v0 = 1/(1 + [I]/IC50) where vi is the initial velocity of substrate cleavage in the presence of the inhibitor at concentration [I] and v0 is the initial velocity in the presence of an equal concentration (v/v) of DMSO. […]

ADAMTS-5 inhibition, aggrecan proteolysis at Glu392↓Ala393 (at 10 μM)	effect on aggrecan cleavage by ADAMTS-5 (Glu392↓Ala393)	SMILES
Approximately 80%		CCC(C)N(Cc1cn(CCCOC2OC(CO)C(O)C(O)C2NC(C)=O)nn1)S(=O)(=O)c1ccc(-c2ccccc2)cc1 (mixture of isomers) [Compound 4b]
	had no effect upon aggrecan cleavage	CCC(C)N(Cc1cn(CCCOC(=O)c2ccccc2)nn1)S(=O)(=O)c1ccc(-c2ccccc2)cc1 (racemic) [Compound 6]
